Results on 8 compounds are retold here after PubChem BioAssay (NCI).

Some test systems named below: UO-31 renal; SF-295 CNS; SNB-75 CNS; SNB-19 CNS; HCC-2998 colon; SW-620 colon; SR leukemia; EKVX NSCLC; MDA-MB-435; UACC-62 melanoma.
Common to all, as to experiment: DTP human tumour cell line panel, 48 h

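Following 48 hours of exposure in 96-well plates, responses at five concentrations were used to interpolate endpoints linearly. Here, GI50 denotes the concentration required for 50% inhibition of growth. The concentration for full growth arrest is given as TGI.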 A value given as a limit tells only on which side of the number the result lay.

Take `c1cc(C2CCCCC2)ccc1-c1cnc2nonc2n1`: the GI50 (as a rule, the concentration that inhibits growth by half) was 1.18 µM with UO-31 renal; 1.64 µM in the experiment on SF-295 CNS; 0.528 µM in the experiment on SNB-75 CNS; 1.46 µM in the experiment on SNB-19 CNS; 1.47 µM in the experiment on HCC-2998 colon; 0.502 µM with SW-620 colon. For the same compound, the GI50 in the experiment with SR leukemia is 0.348 µM; in the experiment with EKVX NSCLC, 1.52 µM; with MDA-MB-435 it was 0.237 µM; in the experiment on UACC-62 melanoma, 0.393 µM. The concentration for total growth inhibition (TGI) (usually the concentration at which net growth stops) with UO-31 renal amounted to 2.44 µM; in the experiment with SF-295 CNS, 4.32 µM; with SNB-75 CNS it was 1.71 µM; in the experiment with SNB-19 CNS, 3.55 µM; in the experiment on HCC-2998 colon, 2.94 µM; in the experiment on SW-620 colon, 2.45 µM. The values for the TGI with EKVX NSCLC, in the experiment on MDA-MB-435 and in the experiment with UACC-62 melanoma were 3.65 µM, 0.65 µM and 1.96 µM, respectively.

Take `Cc1nc2sc(C(=O)Nc3ccccc3)c(N)c2cc1C(O)c1ccccc1` (centres undefined): the GI50 was 0.727 µM in the experiment with UO-31 renal; 0.252 µM in the experiment on SF-295 CNS; 0.244 µM with SNB-75 CNS; 0.446 µM in the experiment on SNB-19 CNS; 0.329 µM with HCC-2998 colon; 0.283 µM in the experiment with SW-620 colon. Moreover, the concentration for 50% growth inhibition (GI50) was 0.0434 µM with SR leukemia, 0.597 µM in the experiment with EKVX NSCLC, 0.0308 µM in the experiment with MDA-MB-435 and 0.382 µM in the experiment with UACC-62 melanoma. Moreover, the TGI is above 60.9 µM with UO-31 renal; 4.29 µM in the experiment on SF-295 CNS; above 72.8 µM in the experiment with SNB-75 CNS; above 100 µM with SNB-19 CNS; 6.27 µM in the experiment on HCC-2998 colon; above 100 µM in the experiment with SW-620 colon. Further, the TGI in the experiment on SR leukemia was above 30.5 µM; with EKVX NSCLC, above 100 µM; in the experiment with MDA-MB-435, 0.102 µM; with UACC-62 melanoma, above 48.3 µM.

Turning to `CCCCSc1nc(N)c2cn[nH]c2n1`, the GI50 in the experiment on UO-31 renal was 26.2 µM; in the experiment with SF-295 CNS, 20.8 µM; in the experiment with SNB-75 CNS it was 26.4 µM; in the experiment on SNB-19 CNS, 37.3 µM; in the experiment with HCC-2998 colon, 0.22 µM; with SW-620 colon, 29.1 µM. The GI50 in the experiment with SR leukemia was 14.1 µM; with EKVX NSCLC, 15.6 µM; in the experiment on MDA-MB-435 it was 21 µM; in the experiment on UACC-62 melanoma it was 16.8 µM. Also, the TGI in the experiment with UO-31 renal is above 80.4 µM; in the experiment on SF-295 CNS, 38.8 µM; with SNB-75 CNS it was 69 µM; with SNB-19 CNS, above 76.8 µM; in the experiment on HCC-2998 colon, 2.26 µM; in the experiment on SW-620 colon, above 70 µM. In addition, the TGI stood at 36.4 µM in the experiment on SR leukemia, 57.3 µM in the experiment with EKVX NSCLC, 41.8 µM in the experiment with MDA-MB-435 and 40.8 µM with UACC-62 melanoma.

Take `COc1cc2c(NC3CCN(C(C)C)CC3)nc(C3CCCCC3)nc2cc1OCCCN1CCCC1`: the GI50 in the experiment with UO-31 renal was 14.1 µM; in the experiment on SF-295 CNS it was 2.52 µM; in the experiment with SNB-75 CNS it was 2.09 µM; in the experiment with SNB-19 CNS it was 15.4 µM; with HCC-2998 colon, 9.03 µM; in the experiment with SW-620 colon it was 2.15 µM. In addition, the GI50 in the experiment on SR leukemia was 3.25 µM; in the experiment on EKVX NSCLC, 8.42 µM; with MDA-MB-435 it was 1.67 µM; in the experiment on UACC-62 melanoma it was 5.47 µM. Also, the concentration for total growth inhibition (TGI) in the experiment with UO-31 renal amounted to 28.1 µM; in the experiment on SF-295 CNS, 6.55 µM; in the experiment on SNB-75 CNS it was 10.8 µM; in the experiment on SNB-19 CNS, 30.3 µM; with HCC-2998 colon, 27.4 µM; with SW-620 colon it was 6.45 µM. Moreover, the total growth inhibition concentration (TGI) came out at 10.2 µM in the experiment on SR leukemia, 21.1 µM with EKVX NSCLC, 3.34 µM with MDA-MB-435 and 16.8 µM in the experiment with UACC-62 melanoma.

For the compound `CN(C)C(=S)/N=c1\ssc(=S)n1Cc1ccco1`, the total growth inhibition concentration (TGI) with UO-31 renal was above 100 µM; in the experiment on SF-295 CNS, above 23 µM; in the experiment with SNB-75 CNS, above 23.9 µM; with SNB-19 CNS, above 78.4 µM; with HCC-2998 colon, above 100 µM; in the experiment on SW-620 colon, above 100 µM. Further, the concentration for total growth inhibition (TGI) was above 100 µM in the experiment on SR leukemia, above 100 µM with EKVX NSCLC, 1.95 µM with MDA-MB-435 and above 59.3 µM in the experiment with UACC-62 melanoma.

Regarding `C[C@H]1COCCN1c1nc(-c2cnc(N)cc2C(F)F)nc(N2CCOCC2)n1`, the GI50 was 0.047 µM in the experiment on UO-31 renal; 0.119 µM in the experiment on SF-295 CNS; 0.0355 µM with SNB-75 CNS; 0.3 µM with SNB-19 CNS; 0.186 µM in the experiment on HCC-2998 colon; 0.258 µM in the experiment with SW-620 colon. In addition, the GI50 in the experiment with SR leukemia is 0.275 µM; in the experiment with EKVX NSCLC, 0.178 µM; with MDA-MB-435, 0.182 µM; in the experiment on UACC-62 melanoma, 0.0794 µM. Further, the TGI in the experiment with UO-31 renal is above 100 µM; with SF-295 CNS it was 0.645 µM; with SNB-75 CNS, 0.354 µM; in the experiment with SNB-19 CNS it was 13.8 µM; in the experiment on HCC-2998 colon it was 15.1 µM; in the experiment on SW-620 colon it was above 100 µM. Moreover, the TGI in the experiment on SR leukemia was found to be 29.1 µM; in the experiment on EKVX NSCLC it was 2 µM; in the experiment with MDA-MB-435, 5.27 µM; with UACC-62 melanoma it was 0.401 µM.

Turning to `CCN(CC)/[N+]([O-])=N/OCOC`, the TGI in the experiment with UO-31 renal, with SF-295 CNS, in the experiment on SNB-75 CNS, with SNB-19 CNS, with HCC-2998 colon and in the experiment with SW-620 colon was above 100 µM in each case. Also, the total growth inhibition concentration (TGI) in the experiment on SR leukemia, in the experiment on EKVX NSCLC, in the experiment on MDA-MB-435 and in the experiment on UACC-62 melanoma was above 100 µM each time.

With `C[C@@]1(C(=O)O)CCC[C@]2(C)C1CC[C@]13C[C@@](O)(CO)[C@](O)(CC[C@]12O)C3` (some centres undefined), the GI50 in the experiment on UO-31 renal, in the experiment with SF-295 CNS, in the experiment with SNB-75 CNS, in the experiment on SNB-19 CNS, with HCC-2998 colon and with SW-620 colon was above 100 µM in each case. Moreover, the GI50 with SR leukemia, in the experiment on EKVX NSCLC, with MDA-MB-435 and in the experiment with UACC-62 melanoma was above 100 µM in each case. For the same compound, the TGI in the experiment on UO-31 renal, with SF-295 CNS, with SNB-75 CNS, with SNB-19 CNS, in the experiment on HCC-2998 colon and in the experiment on SW-620 colon was above 100 µM throughout. In addition, the TGI in the experiment on SR leukemia, in the experiment on EKVX NSCLC, in the experiment with MDA-MB-435 and in the experiment with UACC-62 melanoma was above 100 µM throughout.
